Laboratory results as given in PMC3563359 (Nature communications, 2012).

Legend:
SK2-a channels = SK2-a channels (Rattus norvegicus, UniProt P0DP29+P70604); assay: Potentiation of WT SK2-a channel currents, inside-out patch, TsA201 cells; assay type: cell-based
EDHF-mediated responses = conditions: cited from earlier work
[1] = cited from earlier work
[2] = ratio of EC50s, SK2-a, 200 nM Ca2+

Chain of SK2-a channels (P70604 whole entry, one chain of several): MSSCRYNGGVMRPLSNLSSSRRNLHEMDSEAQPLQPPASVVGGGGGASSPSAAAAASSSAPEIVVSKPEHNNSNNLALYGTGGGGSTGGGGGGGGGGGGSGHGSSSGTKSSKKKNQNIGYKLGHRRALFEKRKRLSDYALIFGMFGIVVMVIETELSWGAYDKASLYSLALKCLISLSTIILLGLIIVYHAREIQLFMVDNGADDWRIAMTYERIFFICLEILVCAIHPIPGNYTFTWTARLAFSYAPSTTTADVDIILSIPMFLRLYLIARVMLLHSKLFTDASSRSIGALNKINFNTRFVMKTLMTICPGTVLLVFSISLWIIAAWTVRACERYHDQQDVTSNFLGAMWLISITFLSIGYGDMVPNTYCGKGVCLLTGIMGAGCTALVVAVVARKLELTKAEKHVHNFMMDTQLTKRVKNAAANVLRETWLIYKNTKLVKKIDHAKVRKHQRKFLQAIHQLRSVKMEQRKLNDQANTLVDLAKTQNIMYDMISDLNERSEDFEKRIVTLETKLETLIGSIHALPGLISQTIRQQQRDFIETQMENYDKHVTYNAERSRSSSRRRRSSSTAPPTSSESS

Compound | EC50 (SK2-a channels) | Hill coefficient of potentiation of SK2-a channel activity (SK2-a channels; 200 nM Ca2+, inside-out patch) | fold less potent compared to NS309 (SK2-a channels; [2]) | fold less potent than DCEBIO (SK2-a channels; [2]) | effect on EDHF-mediated responses (EDHF-mediated responses) | effect on blood pressure [1]
NC(=O)Nc1ccccc1 [PHU, phenylurea] | 1610 ± 200 µM | 1.81 ± 0.22 | more than 3600 fold | ~75 fold |  | 
Nc1nc2c(ccc3ccccc32)s1 [SKA-31, Naphtho[1,2-d]thiazol-2-ylamine] |  |  |  |  | enhances | lowers the blood pressure
